# Target: Botulinum neurotoxin type A (Clostridium botulinum, UniProt P0DPI0)
# Sequence (P0DPI0 2-448 limits assumed): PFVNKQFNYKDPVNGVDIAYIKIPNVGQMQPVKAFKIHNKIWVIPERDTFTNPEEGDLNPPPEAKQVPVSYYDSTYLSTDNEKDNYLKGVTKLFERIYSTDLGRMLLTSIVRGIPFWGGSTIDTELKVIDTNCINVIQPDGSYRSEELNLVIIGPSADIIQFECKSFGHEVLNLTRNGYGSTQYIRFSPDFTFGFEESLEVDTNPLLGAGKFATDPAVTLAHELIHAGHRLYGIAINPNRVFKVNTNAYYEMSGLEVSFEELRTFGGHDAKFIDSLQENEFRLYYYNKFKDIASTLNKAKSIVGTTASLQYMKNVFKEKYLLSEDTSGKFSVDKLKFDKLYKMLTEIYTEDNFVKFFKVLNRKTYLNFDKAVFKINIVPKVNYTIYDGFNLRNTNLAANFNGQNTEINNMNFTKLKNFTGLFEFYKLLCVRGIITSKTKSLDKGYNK
smiles,measurement,value
COC(=O)c1ccc(O)c2nc3c(C=O)c(O)cc(O)c3nc12 [LOMOFUNGIN],Ki,25 µM
